Patent US10590132B2, “Selective estrogen receptor down-regulators” (AstraZeneca AB, priority 2017, dated 2020)

Experiment: Human plasma protein binding (equilibrium dialysis)
Format: in vitro ADME
Settings: dialysis 18 hours

| Human plasma protein binding (% free) | SMILES |
| --- | --- |
| 1 | C[C@@H]1Cc2c([nH]c3ccccc23)[C@@H](c2c(F)cnc(OCCNCCCF)c2F)N1CC(F)(F)F [Example 107, N-(2-((3,5-difluoro-4-((1R,3R)-3-methyl-2-(2,2,2-trifluoroethyl)-2,3,4,9-tetrahydro-1H-pyrido[3,4-b]indol-1-yl)pyridin-2-yl)oxy)ethyl)-3-fluoropropan-1-amine] |
| 2.3 | C[C@@H]1Cc2c([nH]c3ccccc23)[C@@H](c2c(F)cnc(OCCNCCCF)c2F)N1CC1(F)CC1 [Example 108, N-(2-((3,5-difluoro-4-((1R,3R)-2-((1-fluorocyclopropyl)methyl)-3-methyl-2,3,4,9-tetrahydro-1H-pyrido[3,4-b]indol-1-yl)pyridin-2-yl)oxy)ethyl)-3-fluoropropan-1-amine] |
| 1.9 | C[C@@H]1Cc2c([nH]c3ccc(F)cc23)[C@@H](c2c(F)cnc(OCCNCCCF)c2F)N1CC1(F)CC1 [Example 109, N-(2-((3,5-difluoro-4-((1R,3R)-6-fluoro-2-((1-fluorocyclopropyl)methyl)-3-methyl-2,3,4,9-tetrahydro-1H-pyrido[3,4-b]indol-1-yl)pyridin-2-yl)oxy)ethyl)-3-fluoropropan-1-amine] |
| 1.4 | C[C@@H]1Cc2c([nH]c3ccccc23)[C@@H](c2c(F)cnc(OCCNCCCF)c2Cl)N1CC(F)(F)CO [Example 111, 3-((1R,3R)-1-(3-chloro-5-fluoro-2-(2-((3-fluoropropyl)amino)ethoxy)pyridin-4-yl)-3-methyl-1,3,4,9-tetrahydro-2H-pyrido[3,4-b]indol-2-yl)-2,2-difluoropropan-1-ol] |
| 1.5 | COc1nnc(OCCNCCCF)cc1[C@@H]1c2[nH]c3ccccc3c2C[C@@H](C)N1CC(F)(F)F [Example 112, 3-fluoro-N-(2-((6-methoxy-5-((1R,3R)-3-methyl-2-(2,2,2-trifluoroethyl)-2,3,4,9-tetrahydro-1H-pyrido[3,4-b]indol-1-yl)pyridazin-3-yl)oxy)ethyl)propan-1-amine] |
| 1.7 | Cc1c(OCCNCCCF)ncnc1[C@@H]1c2[nH]c3ccccc3c2C[C@@H](C)N1CC(F)(F)F [Example 114, 3-fluoro-N-(2-((5-methyl-6-((1S,3R)-3-methyl-2-(2,2,2-trifluoroethyl)-2,3,4,9-tetrahydro-1H-pyrido[3,4-b]indol-1-yl)pyrimidin-4-yl)oxy)ethyl)propan-1-amine] |
| 11 | Cc1c(OCCNCCCF)ncnc1[C@@H]1c2[nH]c3ccccc3c2C[C@@H](C)N1CC(F)(F)CO [Example 115, 2,2-difluoro-3-((1S,3R)-1-(6-(2-((3-fluoropropyl)amino)ethoxy)-5-methylpyrimidin-4-yl)-3-methyl-1,3,4,9-tetrahydro-2H-pyrido[3,4-b]indol-2-yl)propan-1-ol] |
| 8.4 | Cc1c(OCCNCCCF)ccc(F)c1[C@@H]1c2[nH]c3ccccc3c2C[C@@H](C)N1CC(F)(F)C(=O)O [Example 118, 2,2-difluoro-3-((1R,3R)-1-(6-fluoro-3-(2-((3-fluoropropyl)amino)ethoxy)-2-methylphenyl)-3-methyl-1,3,4,9-tetrahydro-2H-pyrido[3,4-b]indol-2-yl)propanoic acid] |
| 15 | C[C@@H]1Cc2c([nH]c3ccccc23)[C@@H](c2c(Cl)ccc(OCCNCCCF)c2Cl)N1C[C@H](C)C(=O)O [Example 128, (S)-3-((1R,3R)-1-(2,6-dichloro-3-(2-((3-fluoropropyl)amino)ethoxy)phenyl)-3-methyl-1,3,4,9-tetrahydro-2H-pyrido[3,4-b]indol-2-yl)-2-methylpropanoic acid] |
| 32 | C[C@@H]1Cc2c([nH]c3ccccc23)[C@@H](c2c(F)ccc(OCCNCCCF)c2Cl)N1CC(C)(C)C(=O)O [Example 131, 3-((1R,3R)-1-(2-chloro-6-fluoro-3-(2-((3-fluoropropyl)amino)ethoxy)phenyl)-3-methyl-1,3,4,9-tetrahydro-2H-pyrido[3,4-b]indol-2-yl)-2,2-dimethylpropanoic acid] |
| 34 | Cc1c([C@@H]2c3[nH]c4ccccc4c3C[C@@H](C)N2C[C@H](C)C(=O)O)ccnc1OCCNCCCF [Example 132, (S)-3-((1R,3R)-1-(2-2-((3-(fluoropropyl)amino)ethoxy)-3-methylpyridin-4-yl)-3-methyl-1,3,4,9-tetrahydro-2H-pyrido[3,4-b]indol-2-yl)-2-methylpropanoic acid] |
| 36 | Cc1c(OCCNCCCF)ccc(F)c1[C@@H]1c2[nH]c3ccccc3c2CC(C)(C)N1C[C@H](C)C(=O)O [Example 134, (S)-3-((R)-1-(6-fluoro-3-(2-((3-fluoropropyl)amino)ethoxy)-2-methylphenyl)-3,3-dimethyl-1,3,4,9-tetrahydro-2H-pyrido[3,4-b]indol-2-yl)-2-methylpropanoic acid] |
| 32 | Cc1c(NCCNCCCF)ccc(F)c1[C@@H]1c2[nH]c3ccccc3c2C[C@@H](C)N1C[C@H](C)C(=O)O [Example 135, (S)-3-((1R,3R)-1-(6-fluoro-3-((2-((3-fluoropropyl)amino)ethyl)amino)-2-methylphenyl)-3-methyl-1,3,4,9-tetrahydro-2H-pyrido[3,4-b]indol-2-yl)-2-methylpropanoic acid] |
| 2.1 | Cc1c(N(C)CCNCCCF)ccc(F)c1[C@@H]1c2[nH]c3ccccc3c2C[C@@H](C)N1C[C@H](C)C(=O)O [Example 136, (S)-3-((1R,3R)-1-(6-fluoro-3-((2-((3-fluoropropyl)amino)ethyl)(methyl)amino)-2-methylphenyl)-3-methyl-1,3,4,9-tetrahydro-2H-pyrido[3,4-b]indol-2-yl)-2-methylpropanoic acid] |
| 19 | Cc1c(N(C)CCN(C)CCCF)ccc(F)c1[C@@H]1c2[nH]c3ccccc3c2C[C@@H](C)N1C[C@H](C)C(=O)O [Example 147, (S)-3-((1R,3R)-1-(6-fluoro-3-((2-((3-fluoropropyl)(methyl)amino)ethyl)(methyl)amino)-2-methylphenyl)-3-methyl-1,3,4,9-tetrahydro-2H-pyrido[3,4-b]indol-2-yl)-2-methylpropanoic acid] |
| 10 | C[C@@H]1Cc2c([nH]c3ccccc23)[C@@H](c2c(F)ccc(OCCN(C)CCCF)c2C(F)F)N1C[C@H](C)C(=O)O [Example 148, (S)-3-((1R,3R)-1-(2-(difluoromethyl)-6-fluoro-3-(2-((3-fluoropropyl)(methyl)amino)ethoxy)phenyl)-3-methyl-1,3,4,9-tetrahydro-2H-pyrido[3,4-b]indol-2-yl)-2-methylpropanoic acid] |
| 5.3 | Cc1c(OCCN(C)CCCF)ccc(F)c1[C@@H]1c2[nH]c3ccccc3c2C[C@@H](C(F)(F)F)N1C[C@H](C)C(=O)O [Example 149, (S)-3-((1R,3S)-1-(6-fluoro-3-(2-((3-fluoropropyl)(methyl)amino)ethoxy)-2-methylphenyl)-3-(trifluoromethyl)-1,3,4,9-tetrahydro-2H-pyrido[3,4-b]indol-2-yl)-2-methylpropanoic acid] |
